Results on six molecules are retold here after ChEMBL document CHEMBL1132325, “4-Heterocyclohexanone-based inhibitors of the serine protease plasmin” (J Med Chem, 1999).

Some results are limits rather than exact numbers.

The Ki is a measure of affinity in units of concentration, obtained from inhibition or displacement.

Experiment [1] deals with T1, Plasminogen (Homo sapiens, UniProt P00747). As to the kind of experiment: (§1) Compound was evaluated for its binding affinity against plasmin.
A further experiment has as its target Serine protease 1 (Homo sapiens, UniProt P07477). As to the kind of experiment: Compound was evaluated for its binding affinity against trypsin.
Experiment [2] concerns the target T1, Plasminogen. Described as §1. This is another data set of the same source.
The target in another experiment is Kallikrein-1 (Homo sapiens, UniProt P06870). Briefly: Compound was evaluated for its binding affinity against kallikrein.
Chain of Kallikrein-1 (P06870 whole entry): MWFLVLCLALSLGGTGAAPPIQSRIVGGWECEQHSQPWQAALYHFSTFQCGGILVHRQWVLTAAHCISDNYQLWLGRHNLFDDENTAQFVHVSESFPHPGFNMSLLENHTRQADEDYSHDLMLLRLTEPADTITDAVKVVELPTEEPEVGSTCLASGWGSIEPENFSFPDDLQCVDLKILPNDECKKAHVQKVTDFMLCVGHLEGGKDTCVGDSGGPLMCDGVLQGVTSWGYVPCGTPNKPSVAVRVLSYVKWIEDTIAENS
The target of a further experiment is Prothrombin (Homo sapiens, UniProt P00734). Briefly: Compound was evaluated for its binding affinity against thrombin.

T1 sequence (P00747 97-580 limits assumed): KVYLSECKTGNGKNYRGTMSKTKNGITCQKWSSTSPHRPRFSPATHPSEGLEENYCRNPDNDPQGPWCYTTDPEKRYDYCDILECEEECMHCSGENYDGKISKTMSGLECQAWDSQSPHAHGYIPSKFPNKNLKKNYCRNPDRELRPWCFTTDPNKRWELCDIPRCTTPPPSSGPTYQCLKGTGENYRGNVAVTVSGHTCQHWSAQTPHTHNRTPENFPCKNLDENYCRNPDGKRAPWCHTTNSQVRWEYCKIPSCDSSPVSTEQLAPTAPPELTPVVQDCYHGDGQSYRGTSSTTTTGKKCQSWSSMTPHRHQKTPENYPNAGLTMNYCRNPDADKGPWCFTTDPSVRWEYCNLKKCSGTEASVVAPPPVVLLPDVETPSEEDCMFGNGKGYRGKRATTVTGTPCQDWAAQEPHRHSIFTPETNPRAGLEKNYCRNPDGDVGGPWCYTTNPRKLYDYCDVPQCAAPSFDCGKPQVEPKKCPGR
T1 sequence (P00747 581-810 limits assumed): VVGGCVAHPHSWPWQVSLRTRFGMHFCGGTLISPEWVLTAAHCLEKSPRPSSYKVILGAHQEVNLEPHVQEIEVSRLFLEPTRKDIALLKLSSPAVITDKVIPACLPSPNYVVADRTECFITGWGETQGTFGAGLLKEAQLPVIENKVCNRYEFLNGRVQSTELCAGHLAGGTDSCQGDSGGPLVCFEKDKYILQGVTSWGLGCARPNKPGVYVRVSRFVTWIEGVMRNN
Chain of Serine protease 1 (P07477 whole entry): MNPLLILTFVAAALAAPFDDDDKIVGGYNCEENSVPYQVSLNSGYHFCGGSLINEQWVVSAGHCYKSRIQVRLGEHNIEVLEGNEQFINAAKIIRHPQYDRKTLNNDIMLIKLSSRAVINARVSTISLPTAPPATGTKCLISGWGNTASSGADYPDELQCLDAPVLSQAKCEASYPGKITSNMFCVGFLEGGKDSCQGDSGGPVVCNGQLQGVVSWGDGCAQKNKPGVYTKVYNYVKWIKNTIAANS

At Plasminogen [1], `CCC(C)[C@@H](N)C(=O)N[C@@H](Cc1ccccc1)C(=O)N(CCCCCCN)C1CCCCC1` (some centres not stated) yielded a Ki of 520 µM.
Regarding `CC[C@@H](C)[C@@H](N)C(=O)N[C@@H](Cc1ccccc1)C(=O)N(CCCCCCN)C1CSCCC1=O` (some centres not stated), the Ki on Serine protease 1 came to 1700 µM; on Plasminogen [2], 50 µM; at Plasminogen [1] it was 130 µM.
Take `CC[C@H](C)[C@@H](N)C(=O)N[C@@H](Cc1ccccc1)C(=O)N(CCCCCCN)C1CSCCC1=O` (some centres not stated): the Ki on Kallikrein-1 stood at 630 µM; at Prothrombin, 720 µM.
For the molecule `NCCCCCCN(CCCCCCN)C1CSCCC1=O` (configuration not stated), the Ki at Serine protease 1 was 1400 µM; on Kallikrein-1 it was greater than 10000 µM; on Plasminogen [2], 400 µM; at Prothrombin, greater than 10000 µM.
Turning to `CC[C@@H](C)[C@@H](N)C(=O)N[C@@H](Cc1ccccc1)C(=O)NC1CSCCC1=O` (stereo in doubt; form 1), the affinity on Plasminogen [1] corresponds to a Ki of 16000 µM.
Molecule `CC[C@@H](C)[C@@H](N)C(=O)N[C@@H](Cc1ccccc1)C(=O)NC1CSCCC1=O` (stereo in doubt; form 2) displayed a Ki at Plasminogen [1] of 9000 µM.
